Data on 1 compound can be found in US5939098A, “Cancer treatment with temozolomide” (Schering Corporation, priority 1997, dated 1999).

Data set [1] is described as follows: side effects of temozolomide administration. Format: in vivo, patient. The settings on record: can be alleviated by an anti-emetic. How it is done: It is preferred that the anti-emetic Ondansetron be given p.o. in a dose of about 8 mg about 30 minutes before temozolomide administration. Of course other anti-emetics such as Hasaldol, Benadryl, and Ativan may also be used as needed.

Data set [2] relates to advanced melanoma. The settings on record: patients with advanced melanoma; Journal of Clinical Oncology, Vol 13, No. 4, 1995, pp 910-913; cited from earlier work.
On the set-up of data set [3]: species or system patient. The settings on record: human, in vivo. How it is done:
Prior to this invention it was generally believed that administering temozolomide to a patient having food in their stomach or to a patient who consumed food too soon before or after administering of the temozolomide would interfere with the bioiavailability of the temozolomide. A fasting of about 8 hours, before administering of temozolomide and 4 hours after receiving temozolomide was believed necessary. Since two twelve-hour fasting periods per day would obviously be unacceptable, it was believed that temozolomide could be administered a maximum of once per day. […] Therefore long fasting periods before and after administration of temozolomide are not necessary. Dosing with temozolomide more than once per day may improve the effectiveness of the treatment. This is so because increasing the frequency of dosing may deplete the O^6 -aklylguanine DNA alkyltransferase more effectively and maintain the depletion of this repair enzyme, resulting therefore in better effectiveness of the drug.

The test system of data set [4] is advanced melanoma. The settings on record: patients having advanced melanoma; Newlands ES, et al. Br J Cancer 65 (2), 1992; cited from earlier work.

SMILES strings stand for the structures.

On to `Cn1nnc2c(C(N)=O)ncn2c1=O` [temozolomide, 3,4-dihydro-3-methyl-4-oxoimidazo-[5,1-d]1,2,3,4-tetrazin-8-carboximide], for which the “common, but tolerable side effect” value in data set [1] was “nausea and vomiting”. Besides, the “clinical response achieved, % of patients” value in the data set on advanced melanoma [2] was 21%. For the same compound, in data set [3], the “Area Under Curve (AUC) for those fed as % of AUC for those fasted” value is reported as “about 90%”. Also, in the data set with advanced melanoma [4], the “clinical responses achieved, % of patients” value was 17%.
